According to patent US7803930B2, “Antisense modulation of apolipoprotein B-expression” (Isis Pharmaceuticals, Inc., priority 2002, dated 2010):
In the oligonucleotide strings, read from the 5' end, every base follows the letter of its sugar. An asterisk marks phosphorothioate; unmarked linkages are phosphodiester. Other units and linkages are bracketed, terminal groups are in braces. A string of capitals states the bases alone. e = 2'-O-(2-methoxyethyl) (MOE); [5mC] = 5-methylcytosine; d = 2'-deoxy (DNA)

Tested on: mouse apolipoprotein B mRNA
Experiment: Inhibition of mouse apolipoprotein B mRNA levels in primary mouse hepatocytes, real-time PCR
Format: cell-based
Settings: for % INHIB: Table 3, 150 nM, averages from two experiments
Experimental: Primary mouse hepatocytes were prepared from CD-1 mice purchased from Charles River Labs (Wilmington, Mass.) and were routinely cultured in Hepatoyte Attachment Media (Gibco) supplemented with 10% Fetal Bovine Serum (Gibco/Life Technologies, Gaithersburg, Md.), 250 nM dexamethasone (Sigma), and 10 nM bovine insulin (Sigma). Cells were seeded into 96-well plates (Falcon-Primaria #3872) at a density of 10000 cells/well for use in RT-PCR analysis.
When cells reached 80% confluency, they were treated with oligonucleotide. For cells grown in 96-well plates, wells were washed once with 200 μL OPTI-MEM™-1 reduced-serum medium (Gibco BRL) and then treated with 130 μL of OPTI-MEM™-1 containing 3.75 μg/mL LIPOFECTIN™ (Gibco BRL) and the desired concentration of oligonucleotide. After 4-7 hours of treatment, the medium was replaced with fresh medium. Cells were harvested 16-24 hours after oligonucleotide treatment.
Quantitation of apolipoprotein B mRNA levels was determined by real-time quantitative PCR using the ABI PRISM™ 7700 Sequence Detection System (PE-Applied Biosystems, Foster City, Calif.) according to manufacturer's instructions. This is a closed-tube, non-gel-based, fluorescence detection system which allows high-throughput quantitation of polymerase chain reaction (PCR) products in real-time. As opposed to standard PCR, in which amplification products are quantitated after the PCR is completed, products in real-time quantitative PCR are quantitated as they accumulate. This is accomplished by including in the PCR reaction an oligonucleotide probe that anneals specifically between the forward and reverse PCR primers, and contains two fluorescent dyes. A reporter dye (e.g., JOE, FAM, or VIC, obtained from either Operon Technologies Inc., Alameda, Calif. or PE-Applied Biosystems, Foster City, Calif.) is attached to the 5′ end of the probe and a quencher dye (e.g., TAMRA, obtained from either Operon Technologies Inc., Alameda, Calif. or PE-Applied Biosystems, Foster City, Calif.) is attached to the 3′ end of the probe. When the probe and dyes are intact, reporter dye emission is quenched by the proximity of the 3′ quencher dye. During amplification, annealing of the probe to the target sequence creates a substrate that can be cleaved by the 5′-exonuclease activity of Taq polymerase. […] With each cycle, additional reporter dye molecules are cleaved from their respective probes, and the fluorescence intensity is monitored at regular intervals by laser optics built into the ABI PRISM™ 7700 Sequence Detection System. In each assay, a series of parallel reactions containing serial dilutions of mRNA from untreated control samples generates a standard curve that is used to quantitate the percent inhibition after antisense oligonucleotide treatment of test samples.
Probes and primers to mouse apolipoprotein B were designed to hybridize to a mouse apolipoprotein B sequence, using published sequence information (GenBank accession number M35186, incorporated herein as SEQ ID NO: 10). For mouse apolipoprotein B the PCR primers were: forward primer: CGTGGGCTCCAGCATTCTA (SEQ ID NO: 11) reverse primer: […] (SEQ ID NO: 12) and the PCR probe was: FAM-[…]-TAMRA SEQ ID NO: 13) where FAM (PE-Applied Biosystems, Foster City, Calif.) is the fluorescent reporter dye) and TAMRA (PE-Applied Biosystems, Foster City, Calif.) is the quencher dye. For mouse GAPDH the PCR primers were: forward primer: […] (SEQ ID NO: 14) reverse primer: […] (SEQ ID NO:15) and the PCR probe was: 5′ JOE-[…]-TAMRA 3′ (SEQ ID NO: 16) where JOE (PE-Applied Biosystems, Foster City, Calif.) is the fluorescent reporter dye) and TAMRA (PE-Applied Biosystems, Foster City, Calif.) is the quencher dye.
In accordance with the present invention, a series of oligonucleotides was designed to target different regions of the mouse apolipoprotein B RNA, using published sequence (GenBank accession number M35186, incorporated herein as SEQ ID NO: 10). […]

| Substance | % INHIB | also measured |
| --- | --- | --- |
| 147475 (eA*eT*eT*eG*eT*dA*dT*dG*dT*dG*dA*dG*dA*dG*dG*eT*eG*eA*eG*eG; antisense) [compound 147475] | 79% | – |
| 147476 (eG*eA*eG*eG*eA*dG*dA*dT*dT*dG*dG*dA*dT*d[5mC]*dT*eT*eA*eA*eG*eG; antisense) [compound 147476] | 13% | – |
| 147478 (eT*e[5mC]*e[5mC]*eA*eG*dG*dA*dA*dT*dT*dG*dA*dG*d[5mC]*dT*eT*eG*eT*eG*e[5mC]; antisense) [compound 147478] | 78% | – |
| 147480 (eT*e[5mC]*eT*e[5mC]*eA*d[5mC]*d[5mC]*d[5mC]*dT*d[5mC]*dA*dT*dG*d[5mC]*dT*e[5mC]*e[5mC]*eA*eT*eT; antisense) [compound 147480] | 54% | – |
| 147481 (eT*eG*eA*e[5mC]*eT*dG*dT*d[5mC]*dA*dA*dG*dG*dG*dT*dG*eA*eG*e[5mC]*eT*eG; antisense) [compound 147481] | 24% | – |
| 147482 (eG*eT*e[5mC]*e[5mC]*eA*dG*d[5mC]*d[5mC]*dT*dA*dG*dG*dA*dA*d[5mC]*eA*e[5mC]*eT*e[5mC]*eA; antisense) [compound 147482] | 59% | – |
| 147484 (eT*eT*e[5mC]*eA*eT*d[5mC]*d[5mC]*dG*dA*dG*dA*dA*dG*dT*dT*eG*eG*eG*eA*e[5mC]; antisense) [compound 147484] | 49% | – |
| 147485 (eA*eT*eT*eT*eG*dG*dG*dA*d[5mC]*dG*dA*dA*dT*dG*dT*eA*eT*eG*e[5mC]*e[5mC]; antisense) [compound 147485] | 64% | – |
| 147487 (eT*eT*e[5mC]*e[5mC]*e[5mC]*dA*dG*dT*d[5mC]*dA*dG*d[5mC]*dT*dT*dT*eA*eG*eT*eG*eG; antisense) [compound 147487] | 73% | – |
| 147488 (eA*eG*e[5mC]*eT*eT*dG*d[5mC]*dT*dT*dG*dT*dT*dG*dG*dG*e[5mC]*eA*e[5mC]*eG*eG; antisense) [compound 147488] | 72% | – |
| 147489 (e[5mC]*e[5mC]*eT*eA*eT*dA*d[5mC]*dT*dG*dG*d[5mC]*dT*dT*d[5mC]*dT*eA*eT*eG*eT*eT; antisense) [compound 147489] | 5% | – |
| 147491 (eG*eA*eG*eA*eA*dA*dT*d[5mC]*d[5mC]*dT*dT*d[5mC]*dA*dG*dT*eA*eA*eG*eG*eG; antisense) [compound 147491] | 71% | – |
| 147492 (e[5mC]*eA*eA*eT*eG*dG*dA*dA*dT*dG*d[5mC]*dT*dT*dG*dT*e[5mC]*eA*e[5mC]*eT*eG; antisense) [compound 147492] | 68% | – |
| 147493 (eG*e[5mC]*eT*eT*e[5mC]*dA*dT*dT*dA*dT*dA*dG*dG*dA*dG*eG*eT*eG*eG*eT; antisense) [compound 147493] | 41% | – |
| 147494 (eA*e[5mC]*eA*eA*e[5mC]*dT*dG*dG*dG*dA*dT*dA*dG*dT*dG*eT*eA*eG*e[5mC]*e[5mC]; antisense) [compound 147494] | 84% | – |
| 147495 (eG*eT*eT*eA*eG*dG*dA*d[5mC]*d[5mC]*dA*dG*dG*dG*dA*dT*eT*eG*eT*eG*eA; antisense) [compound 147495] | 0% | – |
| 147496 (eA*e[5mC]*e[5mC]*eA*eT*dG*dG*dA*dA*dA*dA*d[5mC]*dT*dG*dG*e[5mC]*eA*eA*e[5mC]*eT; antisense) [compound 147496] | 19% | – |
| 147498 (eT*eG*eG*eG*e[5mC]*dA*dA*d[5mC]*dG*dA*dT*dA*dT*d[5mC]*dT*eG*eA*eT*eT*eG; antisense) [compound 147498] | 0% | – |
| 147499 (e[5mC]*eT*eG*e[5mC]*eA*dG*dG*dG*d[5mC]*dG*dT*d[5mC]*dA*dG*dT*eG*eA*e[5mC]*eA*eA; antisense) [compound 147499] | 29% | – |

| Substance | % INHIB | also measured |
| --- | --- | --- |
| 147501 (e[5mC]*eT*eT*eG*eG*dT*dT*dA*dA*dA*d[5mC]*dT*dA*dA*dT*eG*eG*eT*eG*e[5mC]; antisense) [compound 147501] | 18% | – |
| 147502 (eA*eT*eG*eG*eG*dA*dG*d[5mC]*dA*dT*dG*dG*dA*dG*dG*eT*eT*eG*eG*e[5mC]; antisense) [compound 147502] | 16% | – |
| 147503 (eA*eA*eT*eG*eG*dA*dT*dG*dA*dT*dG*dA*dA*dA*d[5mC]*eA*eG*eT*eG*eG; antisense) [compound 147503] | 26% | – |
| 147505 (eG*eG*eA*eA*eG*dT*dG*dA*dG*dA*d[5mC]*dT*dT*dT*d[5mC]*eT*eA*eA*eG*e[5mC]; antisense) [compound 147505] | 76% | – |
| 147506 (eA*eG*eG*eA*eA*dG*dG*dA*dA*d[5mC]*dT*d[5mC]*dT*dT*dG*eA*eT*eA*eT*eT; antisense) [compound 147506] | 58% | – |
| 147507 (eA*eT*eT*eG*eG*d[5mC]*dT*dT*d[5mC]*dA*dT*dT*dG*dG*d[5mC]*eA*eA*e[5mC]*eA*e[5mC]; antisense) [compound 147507] | 81% | – |
| 147759 (eA*eG*eG*eT*eG*dA*dG*dG*dA*dA*dG*dT*dT*dG*dG*eA*eA*eT*eT*e[5mC]; antisense) [compound 147759] | 19% | – |
| 147761 (eG*eT*eT*e[5mC]*eA*dT*dG*dG*dA*dT*dT*d[5mC]*d[5mC]*dT*dT*e[5mC]*eA*eG*eG*eA; antisense) [compound 147761] | 45% | – |
| 147762 (eA*eT*eG*e[5mC]*eT*d[5mC]*d[5mC]*dA*dT*dT*d[5mC]*dT*d[5mC]*dA*d[5mC]*eA*eT*eG*e[5mC]*eT; antisense) [compound 147762] | 46% | – |
| 147763 (eT*eG*e[5mC]*eG*eA*d[5mC]*dT*dG*dT*dG*dT*d[5mC]*dT*dG*dA*eT*eT*eT*e[5mC]*e[5mC]; antisense) [compound 147763] | 34% | – |
| 147765 (eA*eG*eG*e[5mC]*e[5mC]*d[5mC]*dA*dG*dT*dT*d[5mC]*d[5mC]*dA*dT*dG*eA*e[5mC]*e[5mC]*e[5mC]*eT; antisense) [compound 147765] | 59% | – |
| 147766 (eG*eG*eA*eG*e[5mC]*d[5mC]*d[5mC]*dA*d[5mC]*dG*dT*dG*d[5mC]*dT*dG*eA*eG*eA*eT*eT; antisense) [compound 147766] | 59% | – |
| 147767 (e[5mC]*eG*eT*e[5mC]*e[5mC]*dT*dT*dG*dA*dG*d[5mC]*dA*dG*dT*dG*e[5mC]*e[5mC]*e[5mC]*eG*eA; antisense) [compound 147767] | 5% | – |
| 147768 (e[5mC]*e[5mC]*e[5mC]*eA*eT*dA*dT*dG*dG*dA*dG*dA*dA*dA*dT*e[5mC]*e[5mC]*eT*eT*e[5mC]; antisense) [compound 147768] | 24% | – |
| 147769 (e[5mC]*eA*eT*eG*e[5mC]*d[5mC]*dT*dG*dG*dA*dA*dG*d[5mC]*d[5mC]*dA*eG*eT*eG*eT*e[5mC]) [compound 147769] | 89% | Percent Inhibition 50 nM (Table 4, 50 nM): 3%; Percent Inhibition 150 nM (Table 4, 150 nM): 14%; Percent Inhibition 300 nM (Table 4, 300 nM): 28% |
| 147770 (eG*eT*eG*eT*eT*dG*dA*dA*dT*d[5mC]*d[5mC]*d[5mC]*dT*dT*dG*eA*eA*eA*eT*e[5mC]; antisense) [compound 147770] | 67% | – |
| 147771 (eG*eG*eT*eA*eA*dA*dG*dT*dT*dG*d[5mC]*d[5mC]*d[5mC]*dA*dT*eG*eG*e[5mC]*eT*eG; antisense) [compound 147771] | 68% | – |
| 147772 (antisense eG*eT*eT*eA*eT*dA*dA*dA*dG*dT*d[5mC]*d[5mC]*dA*dG*d[5mC]*eA*eT*eT*eG*eG) [compound 147772] | 78% | – |
